Laboratory results from PMC5735564 (Journal for Immunotherapy of Cancer, 2017).
Entries after “also recorded” stand apart in the source; their conditions may differ. Where two headings read alike, the source gives them in different places.

Tests used:
tumor growth = system: tumor growth; design: method as in PMID 15313928; conditions: cited from earlier work
[1] = design: method as in PMID 20219858; conditions: nor-NOHA injected over a period of 10 weeks; cited from earlier work
CT26 tumors = assay: CT26 syngeneic tumor model
Experimental: Female wild-type C57BL/6 and Balb/c mice (5–6 weeks old) were purchased from Charles River Laboratories (Hollister, CA). Severe combined immune deficient (SCID, B6.CB17-PrkdcSCID/SzJ) and Pmel-1 TCR transgenic (B6.Cg-Thy1a/Cy Tg(TcraTcrb)8Rest/J) mice (5–6 weeks old) were purchased from The Jackson Laboratory (Bar Harbor, ME). All mice were housed and treated in accordance with Institutional Animal Care and Use Committee guidelines. For the 4T1 tumor model, 10^5 cells were injected orthotopically into the mammary fat pad; for all other tumor models, 10^6 cells were injected subcutaneously (s.c.) in the right flank. […] Control groups received vehicle (water) twice daily by gavage. Tumor volume measured by digital caliper (length × width × width/2) and body weight were recorded three times per week. Animals were euthanized when tumors necrotized or volumes reached 2000 mm^3. For the CT26 model, anti-PD-L1 antibody (5 mg/kg, clone 10F.9G2, BioXCell, West Lebanon, NH) was injected intraperitoneally (i.p.) on days 5, 7, 9, 11, 13, and 15. […] Gemcitabine (Selleckchem, Houston, TX) was dosed 50 mg/kg i.p. on days 10 and 16 for the CT26 model, 60 mg/kg i.p. on days 6 and 10 for the LLC model, or 30 mg/kg i.p. on day 5 for the 4T1 model [17, 18]. […] For CD8^+ cell depletion, mice were injected i.p. with anti-CD8 antibody (25 mg/kg, clone 2.43, BioXCell) on days −1, 0, + 5, and +10. For NK cell depletion, mice were injected i.p. with anti-NK1.1 antibody (25 mg/kg, clone PK136, BioXCell) in the LLC and B16 models or with anti-Asialo GM1 sera (20 μL, Wako Chemicals, Richmond, VA) in the CT26 model, per the same schedule as anti-CD8.
Excised tumors were placed on ice in RPMI-1640 medium containing 5% FBS, minced with a razor blade, and dissociated in RPMI-1640 supplemented with mouse tumor dissociation enzymes (Miltenyi Biotec, Bergisch Gladbach, Germany) on a GentleMACS Octo Dissociator With Heat (Miltenyi Biotec) according to the manufacturer’s instructions. Dissociated tumors were strained through 70 μm nylon mesh, washed with cold PBS containing 2% FBS, blocked with anti-CD16/CD32 (Fc block antibody, eBioscience), and stained for cell surface antigens. For B16 and 4T1 tumors, washed dissociated tumor cells were incubated with Dead Cell Removal MicroBeads (Miltenyi Biotec) and applied to a magnetic column prior to staining. For intracellular staining, cells were fixed and permeabilized using buffers purchased from R&D Systems or eBioscience for cytoplasmic or nuclear antigens, respectively. All tumor flow experiments were acquired on an Attune NxT flow cytometer and analyzed with FlowJo software version 10 (Ashland, OR), using fluorescence-minus-one controls for gating and single-stained OneComp eBeads (eBioscience) to set compensation matrices.

[2] = Pharmacokinetic and pharmacodynamic study in LLC tumor-bearing mice; type: in vivo, mouse; conditions: oral dosing, pharmacodynamic effect
B16 tumors = assay: B16 syngeneic tumor model; type: in vivo, mouse
[3] = system: human granulocytes co-cultured with autologous T cells; assay: T cell/granulocyte co-culture assay (healthy donor); type: cell-based; conditions: for IC50: Homo sapiens, T-cell, granulocytes to T cells 0.25 to 1
Experimental: T cells or NK cells were purified from healthy donor human blood or from murine splenocytes using a negative selection kit for the appropriate cell type and species from Stemcell Technologies. Isolated T cells or NK cells were loaded with carboxyfluorescein succinimidyl ester (CFSE, Thermo Fisher) and stimulated for 72–96 h in complete growth medium containing a minimum of either 50 μM L-arginine (NK cells) or 100 μM L-arginine (T cells). For T cell stimulation, a solution of 10 μg/mL anti-CD3 (human clones UCHT1 or OKT3; murine clone 145-2C11) was used to coat the wells of a 96-well plate and then T cells were stimulated on immobilized anti-CD3 in the presence of 2 μg/mL soluble anti-CD28 (human clone CD28.2; murine clone 37.51). NK cells were stimulated with recombinant IL-2. Proliferation was quantified by analyzing CFSE dilution by flow cytometry (Guava flow cytometer, Millipore, Billerica, MA or Attune NxT flow cytometer, ThermoFisher).
Freshly isolated granulocytes were incubated for 48 h at 37 °C, during which time they spontaneously activate as determined by increased surface expression of CD66b and scatter properties. T cells isolated from the same healthy donor using a pan-T cell isolation kit (Stemcell Technologies) were loaded with CFSE and plated with immobilized anti-CD3 and soluble anti-CD28 in the presence of the aged granulocytes. The cells were co-cultured at several ratios of granulocytes to T cells as indicated in the figure or at a fixed ratio of 4 T cells to 1 granulocyte. […] Granulocytic MDSC (G-MDSC) or granulocytes from cancer patients were isolated from whole blood purchased from Conversant Biologics. G-MDSCs were purified from the PBMC layer of a Ficoll gradient by positive selection for CD66b^+ cells. Granulocytes were purified from the RBC layer of a Ficoll gradient using Hetasep (Stemcell Technologies). […] Cytokines were quantified in the media from T cell co-culture assays using the Cytometric Bead Array kit according to the manufacturer’s instructions (BD Biosciences).

Recombinant human Arg2 = target: T1, Recombinant human Arg2 (Homo sapiens, UniProt P78540); assay: Recombinant arginase activity assay (Arg2); type: biochemical; conditions: 20 mM L-arginine; N = 2; mean (±SD)
T1 construct: Recombinant human arginase 2 (Arg2) comprising amino acids 23–254 was purchased from US Biological; purchased US Biological (Salem, MA)
T1 sequence (P78540 23-354): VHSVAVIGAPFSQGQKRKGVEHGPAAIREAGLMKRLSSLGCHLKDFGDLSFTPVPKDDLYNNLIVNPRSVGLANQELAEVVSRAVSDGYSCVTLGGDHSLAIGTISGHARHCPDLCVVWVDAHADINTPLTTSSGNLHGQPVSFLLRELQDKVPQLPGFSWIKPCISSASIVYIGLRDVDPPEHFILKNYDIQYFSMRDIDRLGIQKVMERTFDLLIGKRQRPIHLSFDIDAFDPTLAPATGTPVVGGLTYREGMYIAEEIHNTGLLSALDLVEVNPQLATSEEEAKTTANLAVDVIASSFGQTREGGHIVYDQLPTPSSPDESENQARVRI
Experimental: Recombinant human arginase 2 (Arg2) comprising amino acids 23–254 was purchased from US Biological (Salem, MA). […] Activity was determined by a spectrophotometric assay using the QuantiChrom Urea Assay Kit (BioAssay Systems, Hayward, CA) or by quantification of the generation of ^13C(5)-L-ornithine from ^13C(6)-L-arginine using a SCIEX API4000 mass spectrometer (Applied Biosystems, Foster City, CA). Urea produced or ^13C(5)-L-ornithine peak areas were plotted and fitted to a four-parameter equation using GraphPad Prism software (San Diego, CA) to determine IC50 values.

[4] = system: intracellular arginase in HepG2 cell line; assay: Native arginase activity in intact HepG2 cells; type: cell-based, human; conditions: 10 mM L-arginine; urea in media after 24 h; N = 3; mean (±SD)
Experimental: (§1) Intracellular arginase activity was determined for the arginase-expressing HepG2 and K-562 cell lines as follows. […] The medium was harvested after 24 h and urea generated was determined with the QuantiChrom Urea Assay Kit. Wells containing media without cells were used as background controls.

LLC tumors [5] = assay: LLC tumors in conditional Arg1 deleted mice; type: in vivo, mouse; conditions: 100 mg/kg every 12 h for 14 days, oral
Experimental: Arg1 floxed mice were crossed to the Tie2-Cre deleter strain (The Jackson Laboratory) as previously described. Experimental mice were generated from crossing Arg1 ^Flox/Flox; Tie2-Cre ^+ males with Arg1 ^Flox/Flox; Tie2-Cre ^− females, with Cre negative littermates serving as wild-type controls. […] LLC cells (10^6 per mouse) were injected s.c. in the flank region. […] Mice were euthanized, and tumors excised and weights recorded. Myeloid deletion of Arg1 was confirmed via western blotting of IL-4-stimulated bone marrow-derived macrophages for all animals.

[6] = system: intracellular arginase in K562 cell line; assay: Native arginase activity in intact K-562 cells; type: cell-based, human; conditions: 10 mM L-arginine; urea in media after 24 h; N = 2; mean (±SD)
Experimental: as §1

LLC tumors [7] = assay: LLC syngeneic tumor model; type: in vivo, mouse
[8] = system: granulocytic MDSCs from a lung cancer patient / healthy donor T cells; assay: T cell proliferation in G-MDSC-conditioned media (lung cancer patient); type: cell-based, human
Experimental: Freshly isolated granulocytes were incubated for 48 h at 37 °C, during which time they spontaneously activate as determined by increased surface expression of CD66b and scatter properties. T cells isolated from the same healthy donor using a pan-T cell isolation kit (Stemcell Technologies) were loaded with CFSE and plated with immobilized anti-CD3 and soluble anti-CD28 in the presence of the aged granulocytes. The cells were co-cultured at several ratios of granulocytes to T cells as indicated in the figure or at a fixed ratio of 4 T cells to 1 granulocyte. Co-cultures were incubated for 3–4 days, at which time the medium was analyzed for L-arginine and L-ornithine by mass spectrometry and T cell proliferation was determined by flow cytometry. Granulocytic MDSC (G-MDSC) or granulocytes from cancer patients were isolated from whole blood purchased from Conversant Biologics. G-MDSCs were purified from the PBMC layer of a Ficoll gradient by positive selection for CD66b^+ cells. Granulocytes were purified from the RBC layer of a Ficoll gradient using Hetasep (Stemcell Technologies). Granulocytes and G-MDSCs were characterized by flow cytometry for CD66b expression. […] Cytokines were quantified in the media from T cell co-culture assays using the Cytometric Bead Array kit according to the manufacturer’s instructions (BD Biosciences).

LLC tumors [9] = assay: LLC tumors in SCID mice; type: in vivo, mouse; conditions: 100 mg/kg twice daily
4T1 tumors = assay: 4T1 orthotopic tumor model; type: in vivo, mouse
[10] = system: granulocytes from a head and neck cancer patient / healthy donor T cells; assay: T cell proliferation in granulocyte-conditioned media (head and neck cancer patient); type: cell-based, human
Experimental: Freshly isolated granulocytes were incubated for 48 h at 37 °C, during which time they spontaneously activate as determined by increased surface expression of CD66b and scatter properties. T cells isolated from the same healthy donor using a pan-T cell isolation kit (Stemcell Technologies) were loaded with CFSE and plated with immobilized anti-CD3 and soluble anti-CD28 in the presence of the aged granulocytes. The cells were co-cultured at several ratios of granulocytes to T cells as indicated in the figure or at a fixed ratio of 4 T cells to 1 granulocyte. Co-cultures were incubated for 3–4 days, at which time the medium was analyzed for L-arginine and L-ornithine by mass spectrometry and T cell proliferation was determined by flow cytometry. Granulocytic MDSC (G-MDSC) or granulocytes from cancer patients were isolated from whole blood purchased from Conversant Biologics. G-MDSCs were purified from the PBMC layer of a Ficoll gradient by positive selection for CD66b^+ cells. Granulocytes were purified from the RBC layer of a Ficoll gradient using Hetasep (Stemcell Technologies). Granulocytes and G-MDSCs were characterized by flow cytometry for CD66b expression. Freshly isolated G-MDSC or granulocytes were incubated in co-culture medium containing 100 μM L-arginine for 48 h, at which time the cells were removed and the G-MDSC- or granulocyte-conditioned media were used for incubating healthy donor CFSE-loaded T cells on immobilized anti-CD3/soluble anti-CD28 for 3–4 days. Cytokines were quantified in the media from T cell co-culture assays using the Cytometric Bead Array kit according to the manufacturer’s instructions (BD Biosciences).

[11] = 100 mg/kg twice daily, depleting antibodies
[12] = flow cytometry, study day 14, 100 mg/kg BID
[13] = 100 mg/kg twice daily for 23 days, CT26-inoculated mice
[14] = flow cytometry, study day 10, 100 mg/kg BID

N=C(NO)NCC[C@H](N)C(=O)O [nor-NOHA]
tumor growth (tumor growth; injection of nor-NOHA): reduced tumor growth
tolerability (tumor growth; multi-day studies in mice): well-tolerated
tolerability [1]: well-tolerated

Nc1ccn([C@@H]2O[C@H](CO)[C@@H](O)C2(F)F)c(=O)n1 [Gemcitabine, gemcitabine, reference compound]
CD11b+ myeloid cells in the tumors (CT26 tumors; flow cytometry, study day 14): significant decrease

C[C@H](N)C(=O)N1C[C@H](CCCB(O)O)[C@](N)(C(=O)O)C1 [CB-1158]
amount of L-arginine in plasma and tumors [2]: raised
tumor growth, single agent (CT26 tumors; 100 mg/kg twice daily, oral): significantly inhibited
efficacy after depletion of either CD8+ cells or NK cells (CT26 tumors; [11]): blocked the efficacy
tumor-infiltrating activated CD8+ CD25+ cytotoxic T cells vs vehicle (CT26 tumors; [12]): increase
clinical observations and body weight (Tolerability in mice; [13]): no significant clinical observations or impact on body weight
tolerability (Tolerability in mice; [13]): well-tolerated
tolerability (Tolerability in mice; twice-daily oral dosing for at least 40 days): well-tolerated
tumor growth, single agent (B16 tumors; 100 mg/kg twice daily, oral): significantly inhibited
efficacy after depletion of either CD8+ cells or NK cells (B16 tumors; [11]): blocked the efficacy
tumor-infiltrating activated CD8+ CD25+ cytotoxic T cells vs vehicle (B16 tumors; flow cytometry, study day 9, 100 mg/kg BID): increase
IC50 ([3]; Fig. 1d left, read-out: IC50, consumption of L-arginine from the media by granulocytes): 0.411 µM
IC50 ([3]; Fig. 1d right, read-out: IC50, granulocyte-mediated suppression of T cell proliferation): 0.204 µM
T cell proliferation restored, of the proliferation observed for T cells without granulocytes ([3]; co-culture with activated granulocytes): 90%
IC50 (Recombinant human Arg2): 0.296 µM
IC50 [4]: 32 µM
tumor growth in Arg flox/flox; Tie2-Cre+ (ARG1ΔM) mice (LLC tumors [5]): no further reduction in tumor growth
IC50 [6]: 139 µM
tumor growth, single agent (LLC tumors [7]; 100 mg/kg twice daily, oral): significantly inhibited
effect of depletion of CD8+ cells on efficacy (LLC tumors [7]; 100 mg/kg twice daily, study day 13): smaller effect
efficacy after depletion of NK cells (LLC tumors [7]; 100 mg/kg twice daily, study day 14): loss of efficacy
inflammatory cytokines in tumors vs vehicle (LLC tumors [7]; Luminex, 200 mg/kg twice daily for 14 days): increases
transcripts of interferon-responsive genes in tumors vs vehicle (LLC tumors [7]; Nanostring, 100 mg/kg twice daily for 13 days): increases
CD8+ T cells in the tumor vs vehicle (LLC tumors [7]; [12]): increase
CD68+ macrophages in the tumor vs vehicle (LLC tumors [7]; [12]): decrease
arginine depletion from the media [8]: blocked
T cell proliferation restored, of control levels ([8]; MDSCs to T cells 1 to 1): 99%
efficacy in the SCID background (LLC tumors [9]): abrogated
tumor growth, single agent (4T1 tumors; 100 mg/kg twice daily, oral): significantly inhibited; also recorded: modest effect
CD3+ T cells in the tumor vs vehicle (4T1 tumors; [14]): increase
NK cells in the tumor vs vehicle (4T1 tumors; [14]): increase
myeloid cells in the tumor vs vehicle (4T1 tumors; [14]): decrease
arginine depletion from the media ([10]; granulocyte-conditioned media): blocked
T cell proliferation restored, of control levels ([10]; granulocyte-conditioned media, granulocytes to T cells 0.5 to 1): 79%
secretion of interferon-γ and granzyme-B into the media ([10]; media from Fig. 1f, Cytometric Bead Array): restored
